Values quoted from earlier work as cited in patent US20030187074A1, “Oral compositions for treatment of diabetes” (priority 2002, published 2003).

Settings: Physician's Desk Reference, 2001, page 2980

half-life of elimination from the human body: 3 to 4 h
Compound: CN(CCOc1ccc(CC2SC(=O)NC2=O)cc1)c1ccccn1 (stereo not shown) [rosiglitazone]
